From US9725463B2, “Substituted heterocyclic compounds as CRAC modulators” (LUPIN LIMITED, priority 2013, dated 2017) come the findings set out here.

For the assay, the system named is IL-2 secretion by Jurkat T cells. Put plainly: Inhibition of IL-2 secretion. Type of assay: cell-based. To be noted: Homo sapiens; Jurkat T cells stimulated with PHA, 20 to 24 hours, IL-2 by ELISA. The protocol:
The CRAC channel modulatory activity of the compounds were thus evaluated by measuring the secretion of IL-2 by antigen stimulated T-cells in vitro. Alternatively, such activity can also be evaluated by assay methods known to one skilled in the art.
Inhibition of IL-2 secretion: Jurkat T cells were seeded at a density of 0.5 to 1 million cells per well in RPMI medium. Test compounds from this invention were added to the cells at different concentrations. This was followed by the addition of PHA, a T cell mitogen after 10 minutes. The cells were then incubated for 20 to 24 hours in a CO2 incubator at 37° C. After incubation with the compounds, cells were centrifuged, the supernatant was collected and processed for ELISA to quantitate the amount of IL-2 secreted. A commercial ELISA kit (R&D Systems, Inc. Minneapolis, Minn., USA) was used to estimate the IL-2 concentrations. Amount of IL-2 secreted by cells stimulated with PHA was considered as a 100% maximal signal and the decrease in amount of IL-2 secreted by cells treated with the test compounds was expressed as percent inhibition of the maximal signal. The dose response data was analyzed using 4-parametric sigmoidal dose response (variable slope) curve-fit.
Turning to `Cc1c(-c2ccc(NC(=O)c3c(F)cccc3F)cc2)cnc2c1oc(=O)n2C` [Example 1, N-(4-(3,7-Dimethyl-2-oxo-2,3-dihydrooxazolo[4,5-b]pyridin-6-yl)phenyl)-2,6-difluorobenzamide], the IC50 (in general, the concentration at which inhibition is half-maximal) lay in the range of 25 to 50 nM. The same measure for `CCc1c(-c2ccc(NC(=O)c3c(F)cccc3F)cc2)cnc2c1oc(=O)n2C` [Example 5, N-(4-(7-Ethyl-3-methyl-2-oxo-2,3-dihydrooxazolo [4,5-b]pyridin-6-yl)phenyl)-2,6-difluorobenzamide]: under 25 nM; for `CCc1c(-c2cnc(NC(=O)c3c(F)cccc3F)cn2)cnc2c1oc(=O)n2C` [Example 6, N-(5-(7-Ethyl-3-methyl-2-oxo-2,3-dihydrooxazolo [4,5-b]pyridin-6-yl)pyrazin-2-yl)-2,6-difluorobenzamide]: 100 to 500 nM; for `Cn1c(=O)oc2c(C3CC3)c(-c3ccc(NC(=O)c4c(F)cccc4F)cc3)cnc21` [Example 9, N-(4-(7-Cyclopropyl-3-methyl-2-oxo-2,3-dihydrooxazolo[4,5-b]pyridin-6-yl)phenyl)-2,6-difluorobenzamide]: 25 to 50 nM. `Cc1c(-c2ccc(NC(=O)c3c(F)cccc3F)cc2)ccc2c1oc(=O)n2C` [Example 14, N-(4-(3,7-Dimethyl-2-oxo-2,3-dihydrobenzo [d]oxazol-6-yl)phenyl)-2,6-difluorobenzamide] registered an IC50 of 50 to 100 nM. For `CCc1c(-c2ccc(NC(=O)c3c(F)cccc3F)cc2)ccc2c1oc(=O)n2C` [Example 16, N-(4-(7-Ethyl-3-methyl-2-oxo-2,3-dihydrobenzo [d]oxazol-6-yl)phenyl)-2,6-difluorobenzamide] the value was 25 to 50 nM. `Cn1c(=O)oc2c(C3CC3)c(-c3ccc(NC(=O)c4c(F)cccc4F)cc3)ccc21` [Example 23, N-(4-(7-Cyclopropyl-3-methyl-2-oxo-2,3-dihydrobenzo[d]oxazol-6-yl)phenyl)-2,6-difluorobenzamide] came in with an IC50 of 25 to 50 nM. For `Cn1c(=O)oc2c(C3CC3)c(-c3ccc(NC(=O)c4c(F)cccc4F)nc3)ccc21` [Example 25, N-(5-(7-Cyclopropyl-3-methyl-2-oxo-2,3-dihydrobenzo[d]oxazol-6-yl)pyridin-2-yl)-2,6-difluorobenzamide] the value was 25 to 50 nM; for `Cn1c(=O)oc2c(C3CC3)c(-c3cnc(NC(=O)c4c(F)cccc4F)cn3)ccc21` [Example 26, N-(5-(7-Cyclopropyl-3-methyl-2-oxo-2,3-dihydrobenzo[d]oxazol-6-yl)pyrazin-2-yl)-2,6-difluorobenzamide], 100 to 500 nM. For `Cc1cc2oc(=O)n(C)c2cc1-c1ccc(NC(=O)c2c(F)cccc2F)cc1` [Example 27, N-(4-(3,6-Dimethyl-2-oxo-2,3-dihydrobenzo [d]oxazol-5-yl)phenyl)-2,6-difluorobenzamide] the value was under 25 nM; for `CCn1c(=O)oc2cc(C)c(-c3ccc(NC(=O)c4c(F)cccc4F)cc3)cc21` [Example 28, N-(4-(3-Ethyl-6-methyl-2-oxo-2,3-dihydrobenzo[d]oxazol-5-yl)phenyl)-2,6-difluorobenzamide], 50 to 100 nM. For `Cc1cc2oc(=O)n(CC3CC3)c2cc1-c1ccc(NC(=O)c2c(F)cccc2F)cc1` [Example 29, N-(4-(3-(Cyclopropylmethyl)-6-methyl-2-oxo-2,3-dihydrobenzo[d]oxazol-5-yl)phenyl)-2,6-difluorobenzamide] the value was 25 to 50 nM; for `Cc1cc2oc(=O)n(CCF)c2cc1-c1ccc(NC(=O)c2c(F)cccc2F)cc1` [Example 30, 2,6-Difluoro-N-(4-(3-(2-fluoroethyl)-6-methyl-2-oxo-2,3-dihydrobenzo[d]oxazol-5-yl)phenyl)benzamide], under 25 nM; for `Cc1cc2oc(=O)n(C(C)C)c2cc1-c1ccc(NC(=O)c2c(F)cccc2F)cc1` [Example 31, 2,6-Difluoro-N-(4-(3-isopropyl-6-methyl-2-oxo-2,3-dihydrobenzo[d]oxazol-5-yl)phenyl)benzamide], under 25 nM.

In the case of `Cc1cc2oc(=O)n(C(F)F)c2cc1-c1ccc(NC(=O)c2c(F)cccc2F)cc1` [Example 32, N-(4-(3-(Difluoromethyl)-6-methyl-2-oxo-2,3-dihydrobenzo[d]oxazol-5-yl)phenyl)-2,6-difluorobenzamide], the IC50 was under 25 nM. For `Cc1cc2oc(=O)n(CCC(F)(F)F)c2cc1-c1ccc(NC(=O)c2c(F)cccc2F)cc1` [Example 33, 2,6-Difluoro-N-(4-(6-methyl-2-oxo-3-(3,3,3-trifluoropropyl)-2,3-dihydrobenzo[d]oxazol-5-yl)phenyl) benzamide] the value was 100 to 500 nM; for `CCCn1c(=O)oc2cc(C)c(-c3ccc(NC(=O)c4c(F)cccc4F)cc3)cc21` [Example 34, 2,6-Difluoro-N-(4-(6-methyl-2-oxo-3-propyl-2,3-dihydrobenzo [d]oxazol-5-371)phenyl)benzamide], under 25 nM; for `Cn1c(=O)oc2cc(-c3ccc(NC(=O)c4c(F)cccc4F)cc3)c(C3CC3)nc21` [Example 36, N-(4-(5-Cyclopropyl-3-methyl-2-oxo-2,3-dihydrooxazolo [4,5-b]pyridin-6-yl)phenyl)-2,6-difluorobenzamide], under 25 nM. For `CCc1nc2c(cc1-c1ccc(NC(=O)c3c(F)cccc3F)cc1)oc(=O)n2C` [Example 37, N-(4-(5-Ethyl-3-methyl-2-oxo-2,3-dihydrooxazolo [4,5-b]pyridin-6-yl)phenyl)-2,6-difluorobenzamide] the value was under 25 nM; for `Cc1nc2c(cc1-c1ccc(NC(=O)c3c(F)cccc3F)cc1)oc(=O)n2C` [Example 38, N-(4-(3,5-dimethyl-2-oxo-2,3-dihydrooxazolo [4,5-b]pyridin-6-yl)phenyl)-2,6-difluorobenzamide], under 25 nM. For `Cn1c(=O)oc2cc(-c3ccc(NC(=O)c4c(F)cccc4F)cc3)c(C3CC3)cc21` [Example 42, N-(4-(5-Cyclopropyl-3-methyl-2-oxo-2,3-dihydrobenzo[d]oxazol-6-yl)phenyl)-2,6-difluorobenzamide] the value was under 25 nM. `CCc1cc2c(cc1-c1ccc(NC(=O)c3c(F)cccc3F)cc1)oc(=O)n2C` [Example 43, N-(4-(5-Ethyl-3-methyl-2-oxo-2,3-dihydrobenzo[d]oxazol-6-yl)phenyl)-2,6-difluorobenzamide] yielded an IC50 of under 25 nM.

With `Cc1cc2oc(=O)n(C)c2cc1-c1ccc(NC(=O)c2c(F)cccc2Cl)cc1` [Example 46, 2-Chloro-N-(4-(3,6-dimethyl-2-oxo-2,3-dihydrobenzo[d]oxazol-5-yl)phenyl)-6-fluorobenzamide], the IC50 lay in the range of 25 to 50 nM.

Turning to `Cc1cc2oc(=O)n(C)c2cc1-c1ccc(NC(=O)c2c(C)cccc2F)cc1` [Example 49, N-(4-(3,6-Dimethyl-2-oxo-2,3-dihydrobenzo [d]oxazol-5-yl)phenyl)-2-fluoro-6-methylbenzamide], the IC50 lay within 25 to 50 nM. Turning to `Cc1cc2oc(=O)n(C)c2cc1-c1cnc(NC(=O)c2c(F)cccc2F)cn1` [Example 51, N-(5-(3,6-dimethyl-2-oxo-2,3-dihydrobenzo[d]oxazol-5-yl)pyrazin-2-yl)-2,6-difluorobenzamide], the IC50 lay within 50 to 100 nM. For `Cc1cc2oc(=O)n(C)c2cc1-c1ccc(NC(=O)c2c(F)cccc2F)nc1` [Example 53, N-(5-(3,6-Dimethyl-2-oxo-2,3-dihydrobenzo [d]oxazol-5-yl)pyridin-2-yl)-2,6-difluoro benzamide] the value was 25 to 50 nM; for `Cc1cc2oc(=O)n(C)c2cc1-c1ccc(NCc2c(F)cccc2F)cc1` [Example 55, 5-(4-((2,6-Difluorobenzyl)amino)phenyl)-3,6-dimethyl benzo[d] oxazol-2(3H)-one], under 25 nM; for `Cc1cc2c(cc1-c1ccc(NC(=O)c3c(F)cccc3F)cc1)oc(=O)n2C` [Example 56, N-(4-(3,5-Dimethyl-2-oxo-2,3-dihydrobenzo [d]oxazol-6-yl)phenyl)-2,6-difluorobenzamide], under 25 nM. The same measure for `Cc1cc2oc(=O)n(C)c2cc1-c1ccc(C(=O)Nc2c(F)cncc2F)s1` [Example 60, N-(3,5-Difluoropyridin-4-yl)-5-(3,6-dimethyl-2-oxo-2,3-dihydrobenzo [d]oxazol-5-yl) thiophene-2-carboxamide]: under 25 nM; for `Cc1cc2oc(=O)n(C)c2cc1-c1ccc(C(=O)Nc2c(Cl)cncc2Cl)s1` [Example 61, N-(3,5-Dichloropyridin-4-yl)-5-(3,6-dimethyl-2-oxo-2,3-dihydrobenzo [d]oxazol-5-yl)thiophene-2-carboxamide]: 25 to 50 nM; for `CCc1cc2c(cc1-c1ccc(NC(=O)c3c(F)cccc3F)nc1)oc(=O)n2C` [Example 69, N-(5-(5-Ethyl-3-methyl-2-oxo-2,3-dihydrobenzo [d]oxazol-6-yl)pyridin-2-yl)-2,6-difluoro benzamide]: 25 to 50 nM. Molecule `CCc1cc2c(cc1-c1cnc(NC(=O)c3c(F)cccc3F)cn1)oc(=O)n2C` [Example 70, N-(5-(5-Ethyl-3-methyl-2-oxo-2,3-dihydrobenzo [d]oxazol-6-yl)pyrazin-2-yl)-2,6-difluoro benzamide] came in with an IC50 of under 25 nM. The same measure for `Cn1c(=O)oc2cc(-c3cnc(NC(=O)c4c(F)cccc4F)cn3)c(C3CC3)cc21` [Example 72, N-(5-(5-Cyclopropyl-3-methyl-2-oxo-2,3-dihydrobenzo [d]oxazol-6-yl)pyrazin-2-yl)-2,6-difluorobenzamide]: 50 to 100 nM.
